US10772840B2 (Charleston Laboratories, Inc., priority 2016, dated 2020)
Counter-ions that a name gives are not always drawn.

Assay: Dissolution measurement by USP Apparatus 2 (Paddle Apparatus), HPLC analysis
Assay type: physicochemical
Details: for Dissolution, API released: 500 ml 0.1 N HCl pH 1.1, 37.0° C.; for Dissolution (% release), Max. / Dissolution (% release), Mean / Dissolution (% release), Min.: 500 ml 0.1 N HCl pH 1.1, N=6
Procedure: Dissolution studies were conducted to measure the rates of dissolution of active ingredients using a USP Apparatus 2 (Paddle Apparatus) with a dissolution fluid of 500 ml deaerated 0.1 N HCl (i.e., pH 1.1) at 37.0+/−0.5° C. Dissolution samples were analyzed by HPLC.
Dissolution medium of 0.1N HCl was prepared by mixing approximately 85 ml of concentrated (12N) Hydrochloric Acid with 10 L of water. Stock promethazine HCl standard solution was prepared by adding approximately 30 ml of dissolution medium to 25.0 mg of dried Promethazine Hydrochloride USP reference standard in a 50 ml volumetric flash, diluted to volume with dissolution media, and mixed well. […] The resulting solution is diluted to volume with dissolution medium and mixed well.
The dissolution apparatus used is USP Apparatus 2 (Paddle Apparatus) with a speed of 50 rpm at 37.0° C.±0.5° C. Dissolution medium (500 ml) was Helium sparged for at least 10 minutes. N=6 samples were tested. Sample time point of 5, 10, 15, 20, 30, 45, 60, and 90 minutes (final time point at 250 rpm). Filters: QLA 10 μm in-line full flow porous filter or equivalent; chromafil 1.0 μm on-line glass fiber membrane filter or equivalent.
The dissolution apparatus was assembled and the paddle was positioned so that the distance between its lower edge and the lower inner surface of the vessel is within 25 mm±2 mm throughout the test. This step was repeated for each of the six vessels. The speed (50 rpm) and the temperature (37.0° C.±0.5° C.) were set. 500 mL of 0.1N HCl solution were placed into each of the six vessels, previously degassed via helium purge, degassed using degasser or other suitable means. The Dissolution medium was equilibrated to set temperature and the temperature of the dissolution medium was checked with a thermometer or thermocouple before starting the dissolution. Each of the six (6) capsules were accurately weighed and the weight was recorded. The dissolution test was started. Each capsule was dropped with sinker into vessels noting the station assigned to each recorded capsule weight. The shaft was rotated at 50 rpm. Samples were withdrawn by dissolution auttosampler at 5, 10, 15, 20, 30, 45, 60, and 90 minutes into HPLC vials, or were withdraw manually. Filters (QLA 10 μm in-line full flow porous filter or equivalent; chromafil 1.0 μm on-line glass fiber membrane filter or equivalent) were utilized, discarding at least the first 5 mL of the filtrate, and clear filtrate was transfered into HPLC vials. After withdrawing samples at the 60 minute time point, the paddle rotation speed was increased to 250 rpm until the next time point of 90 minutes.
HPLC conditions: Flow rate: 1.0 ml/min; Injection Volume: 10 μL; Column Temperature: 40° C.±2° C.; Wavelengths: 240 nm; Run Time: 7 minutes; Mobile Phase A was 0.2% TFA in Water, which was prepared by mixing well 2.0 ml of trifluoroacetic acid with 1 L of water. Mobile Phase B: 0.2% TFA in Acetonitrile, which was prepared by mixing well 2.0 ml of trifluoroacetic acid to 1 L of acetonitrile; and Gradient used was as follows in Table 8.
If a Water® dissolution autosampler was utilized, then the Empower Dissolution Software was used to calculate the profile. Calculation are performed using a validated excel spreadsheet. When the sample was performed manually, the volume correction was considered for the calculation.

[1] = in a capsule, after 1 month store at 40° C., 5 min, 50 rpm
[2] = in a capsule, after 1 month store at 40° C., 10 min, 50 rpm
[3] = in a capsule, after 1 month store at 40° C., 15 min, 50 rpm
[4] = in a capsule, after 1 month store at 40° C., 20 min, 50 rpm
[5] = in a capsule, after 1 month store at 40° C., 30 min, 50 rpm
[6] = in a capsule, after 1 month store at 40° C., 45 min, 50 rpm
[7] = in a capsule, after 1 month store at 40° C., 60 min, 50 rpm
[8] = in a capsule, after 1 month store at 40° C., 90 min (250 rpm after 60 min)
[9] = in a capsule, large batch, 5 min, 50 rpm
[10] = in a capsule, large batch, 10 min, 50 rpm
[11] = in a capsule, large batch, 15 min, 50 rpm
[12] = in a capsule, large batch, 20 min, 50 rpm
[13] = in a capsule, large batch, 30 min, 50 rpm
[14] = in a capsule, large batch, 45 min, 50 rpm
[15] = in a capsule, large batch, 60 min, 50 rpm
[16] = in a capsule, large batch, 90 min (250 rpm after 60 min)

CC(CN1c2ccccc2Sc2ccccc21)N(C)C (centres unmarked) [Promethazine, Promethazine Hydrochloride]
Dissolution, API released (content of capsule without shells, 5 min, 50 rpm): 85% | Dissolution, API released (content of capsule without shells, 10 min, 50 rpm): 90% | Dissolution, API released (content of capsule without shells, 15 min, 50 rpm): 92% | Dissolution, API released (content of capsule without shells, 20 min, 50 rpm): 94% | Dissolution, API released (content of capsule without shells, 30 min, 50 rpm): 94% | Dissolution, API released (content of capsule without shells, 45 min, 50 rpm): 95% | Dissolution, API released (content of capsule without shells, 60 min, 50 rpm): 96% | Dissolution, API released (content of capsule without shells, 90 min (250 rpm after 60 min)): 100% | Dissolution (% release), Max. [1]: 56 | Dissolution (% release), Mean [1]: 43 | Dissolution (% release), Min. [1]: 35 | Dissolution (% release), Max. [2]: 77 | Dissolution (% release), Mean [2]: 64 | Dissolution (% release), Min. [2]: 54 | Dissolution (% release), Max. [3]: 83 | Dissolution (% release), Mean [3]: 73 | Dissolution (% release), Min. [3]: 63 | Dissolution (% release), Max. [4]: 88 | Dissolution (% release), Mean [4]: 79 | Dissolution (% release), Min. [4]: 68 | Dissolution (% release), Max. [5]: 92 | Dissolution (% release), Mean [5]: 84 | Dissolution (% release), Min. [5]: 74 | Dissolution (% release), Max. [6]: 96 | Dissolution (% release), Mean [6]: 89 | Dissolution (% release), Min. [6]: 80 | Dissolution (% release), Max. [7]: 98 | Dissolution (% release), Mean [7]: 92 | Dissolution (% release), Min. [7]: 84 | Dissolution (% release), Max. [8]: 103 | Dissolution (% release), Mean [8]: 102 | Dissolution (% release), Min. [8]: 99 | Dissolution (% release), Max. [9]: 63 | Dissolution (% release), Mean [9]: 47 | Dissolution (% release), Min. [9]: 32 | Dissolution (% release), Max. [10]: 87 | Dissolution (% release), Mean [10]: 69 | Dissolution (% release), Min. [10]: 53 | Dissolution (% release), Max. [11]: 92 | Dissolution (% release), Mean [11]: 78 | Dissolution (% release), Min. [11]: 63 | Dissolution (% release), Max. [12]: 95 | Dissolution (% release), Mean [12]: 82 | Dissolution (% release), Min. [12]: 71 | Dissolution (% release), Max. [13]: 97 | Dissolution (% release), Mean [13]: 87 | Dissolution (% release), Min. [13]: 79 | Dissolution (% release), Max. [14]: 99 | Dissolution (% release), Mean [14]: 92 | Dissolution (% release), Min. [14]: 85 | Dissolution (% release), Max. [15]: 101 | Dissolution (% release), Mean [15]: 94 | Dissolution (% release), Min. [15]: 88 | Dissolution (% release), Max. [16]: 105 | Dissolution (% release), Mean [16]: 102 | Dissolution (% release), Min. [16]: 101 | Dissolution, API released (in a capsule, small batch, 5 min, 50 rpm): 55% | Dissolution, API released (in a capsule, small batch, 10 min, 50 rpm): 78% | Dissolution, API released (in a capsule, small batch, 15 min, 50 rpm): 85% | Dissolution, API released (in a capsule, small batch, 20 min, 50 rpm): 88% | Dissolution, API released (in a capsule, small batch, 30 min, 50 rpm): 92% | Dissolution, API released (in a capsule, small batch, 45 min, 50 rpm): 95% | Dissolution, API released (in a capsule, small batch, 60 min, 50 rpm): 97% | Dissolution, API released (in a capsule, small batch, 90 min (250 rpm after 60 min)): 102% | Dissolution, API released (promethazine and sumatriptan pellets, 5 min, 50 rpm): 95% | Dissolution, API released (promethazine and sumatriptan pellets, 15 min, 50 rpm): 102% | Dissolution, API released (promethazine and sumatriptan pellets, 20 min, 50 rpm): 102% | Dissolution, API released (promethazine and sumatriptan pellets, 30 min, 50 rpm): 102% | Dissolution, API released (promethazine and sumatriptan pellets, 45 min, 50 rpm): 102% | Dissolution, API released (promethazine and sumatriptan pellets, 60 min, 50 rpm): 102% | Dissolution, API released (promethazine and sumatriptan pellets, 90 min (250 rpm after 60 min)): 102%
